Test results: article PMC4139024, “Synthesis and In Vitro Inhibition Effect of New Pyrido[2,3-d]pyrimidine Derivatives on Erythrocyte Carbonic Anhydrase I and II” (BioMed Research International, 2014)

What was measured:
[1] = target: T1, human carbonic anhydrase I (hCA I) (Homo sapiens, UniProt P00915); test: hCA I inhibition assay (Maren method, CO2 hydration); assay type: biochemical; settings: purified human erythrocyte hCA I, CO2 as substrate
T1 construct: from tissue
Experimental: (§1) Blood samples (25 mL) were taken from healthy human volunteers. They were anticoagulated with acid-citrate-dextrose and centrifuged at 2000 g for 20 min at 4°C and the supernatant was removed. The packed erythrocytes were washed three times with 0.9% NaCl and then haemolysed in cold water. The ghosts and any intact cells were removed by centrifugation at 2000 g for 25 min at 4°C, and the pH of the haemolysate was adjusted to pH 8.5 with solid Tris-base. The 25 mL haemolysate was applied to an affinity column containing L-tyrosine-sulfonamide-sepharose-4B [21] equilibrated with 25 mM Tris-HCl/0.1 M Na2SO4 (pH 8.5). The affinity gel was washed with 50 mL of 25 mM Tris-HCl/22 mM Na2SO4 (pH 8.5). The hCA isozymes were then eluted with 0.1 M NaCl/25 mM Na2HPO4 (pH 6.3) and 0.1 M CH3COONa/0.5 M NaClO4 (pH 5.6), which recovered hCA I and hCA II, respectively. Fractions of 3 mL were collected and their absorbance was measured at 280 nm.
(§2) CA activity was measured by the Maren method which is based on determination of the time required for the pH to decrease from 10.0 to 7.4 due to CO2 hydration. The assay solution was 0.5 M Na2CO3/0.1 M NaHCO3 (pH 10.0) and Phenol Red was added as the pH indicator. CO2-hydratase activity (enzyme units (EU)) was calculated by using the equation t 0 − t c/t c, where t 0 and t c are the times for pH change of the nonenzymatic and the enzymatic reactions, respectively.
(§3) For the inhibition studies of indolylchalcone and pyrido[2,3-d]pyrimidine derivatives, different concentrations of these compounds were added to the enzyme. Activity percentage values of CA for different concentrations of each pyrimidine derivatives were determined by regression analysis using Microsoft Office 2000 Excel. CA enzyme activity without these compounds was accepted as 100% activity.

[2] = target: T2, human carbonic anhydrase II (hCA II) (Homo sapiens, UniProt P00918); test: hCA II inhibition assay (Maren method, CO2 hydration); assay type: biochemical; settings: purified human erythrocyte hCA II, CO2 as substrate
T2 construct: from tissue
Experimental: as §1, §2, §3

T1 sequence (P00915 whole entry): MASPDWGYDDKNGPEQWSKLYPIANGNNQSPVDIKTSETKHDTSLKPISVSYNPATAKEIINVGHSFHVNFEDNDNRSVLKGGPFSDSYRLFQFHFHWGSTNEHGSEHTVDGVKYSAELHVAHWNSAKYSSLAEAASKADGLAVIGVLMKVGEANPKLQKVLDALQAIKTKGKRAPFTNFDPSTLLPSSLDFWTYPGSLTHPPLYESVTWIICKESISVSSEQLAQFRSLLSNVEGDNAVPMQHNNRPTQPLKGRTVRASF

| melting point [°C] | SMILES | IC50 [1] [µM] | IC50 [2] [µM] |
| --- | --- | --- | --- |
| 399 to 400 | Cc1ccc(-c2cc(-c3cn(C)c4ccccc34)c3c(=O)[nH]c(=O)n(C)c3n2)cc1 [Compound 7b, 1-Methyl-5-(1-methyl-1H-indol-3-yl)-7-p-tolylpyrido[2,3-d]pyrimidine-2,4(1H,3H)-dione] | 11.6 | 12.1 |
| 347 to 349 | Cn1c(=O)c2c(-c3cn(C)c4ccccc34)cc(-c3ccc([N+](=O)[O-])cc3)nc2n(C)c1=O [Compound 7j, 1,3-Dimethyl-5-(1-methyl-1H-indol-3-yl)-7-(4-nitrophenyl)pyrido[2,3-d]pyrimidine-2,4(1H,3H)-dione] | 10.2 | 9.56 |
| 340 to 341 | Cc1ccc(-c2cc(-c3cn(C)c4ccccc34)c3c(=O)n(C)c(=O)n(C)c3n2)cc1 [Compound 7g, 1,3-Dimethyl-5-(1-methyl-1H-indol-3-yl)-7-p-tolylpyrido[2,3-d]pyrimidine-2,4(1H,3H)-dione] | 7.61 | 7.57 |
| 358 to 359 | Cn1c(=O)c2c(-c3cn(C)c4ccccc34)cc(-c3ccc(Cl)cc3)nc2n(C)c1=O [Compound 7h, 7-(4-Chlorophenyl)-1,3-dimethyl-5-(1-methyl-1H-indol-3-yl)pyrido[2,3-d]pyrimidine 2,4(1H,3H)-dione] | 12.4 | 24.7 |
| 340 to 341 | COc1ccc(-c2cc(-c3cn(C)c4ccccc34)c3c(=O)n(C)c(=O)n(C)c3n2)cc1OC [Compound 7e, 7-(3,4-Dimethoxyphenyl)-1,3-dimethyl-5-(1-methyl-1H-indol-3-yl)pyrido[2,3-d]pyrimidine-2,4(1H,3H)-dione] | 6.79 | 8.06 |
| 335.7 to 336 | COc1ccc(-c2cc(-c3cn(C)c4ccccc34)c3c(=O)n(C)c(=O)n(C)c3n2)cc1 [Compound 7f, 7-(4-Methoxyphenyl)-1,3-dimethyl-5-(1-methyl-1H-indol-3-yl)pyrido[2,3-d]pyrimidine-2,4(1H,3H)-dione] | 26.2 | 25.4 |
| 320 | Cn1c(=O)c2c(-c3cn(C)c4ccccc34)cc(-c3ccccc3)nc2n(C)c1=O [Compound 7i, 1,3-Dimethyl-5-(1-methyl-1H-indol-3-yl)-7-phenylpyrido[2,3-d]pyrimidine-2,4(1H,3H)-dione] | 8.72 | 8.14 |
| 349 to 350 | Cn1c(=O)c2c(-c3cn(C)c4ccccc34)cc(-c3cccc([N+](=O)[O-])c3)nc2n(C)c1=O [Compound 7k, 1,3-Dimethyl-5-(1-methyl-1H-indol-3-yl)-7-(3-nitrophenyl)pyrido[2,3-d]pyrimidine-2,4(1H,3H)-dione] | 22.3 | 26.7 |
| 397 | Cn1cc(-c2cc(-c3cccc([N+](=O)[O-])c3)nc3c2c(=O)[nH]c(=O)n3C)c2ccccc21 [Compound 7d, 1-Methyl-5-(1-methyl-1H-indol-3-yl)-7-(3-nitrophenyl)pyrido[2,3-d]pyrimidine-2,4(1H,3H)-dione] | 12.1 | 13.7 |
| 333 to 334 | COc1ccc(-c2cc(-c3cn(C)c4ccccc34)c3c(=O)[nH]c(=O)n(C)c3n2)cc1OC [Compound 7a, 7-(3,4-Dimethoxyphenyl)-1-methyl-5-(1-methyl-1H-indol-3-yl)pyrido[2,3-d]pyrimidine-2,4(1H,3H)-dione] | 16.3 | 19.4 |
| 385 to 389 | Cn1cc(-c2cc(-c3ccc(Cl)cc3)nc3c2c(=O)[nH]c(=O)n3C)c2ccccc21 [Compound 7c, 7-(4-Chlorophenyl)-1-methyl-5-(1-methyl-1H-indol-3-yl)pyrido[2,3-d]pyrimidine-2,4(1H,3H)-dione] | 21.1 | 31.1 |

Further lines, the compound ahead of its results:

| SMILES | melting point [°C] | IC50 [1] [µM] | IC50 [2] [µM] |
| --- | --- | --- | --- |
| COc1ccc(C(=O)/C=C/c2cn(C)c3ccccc23)cc1 [Compound 5b, (E)-1-(4-Methoxyphenyl)-3-(1-methyl-1H-indol-3-yl) prop-2-en-1-one] | 254 | 7.42 | 10.3 |
| Cc1ccc(C(=O)/C=C/c2cn(C)c3ccccc23)cc1 [Compound 5c, (E)-3-(1-Methyl-1H-indol-3-yl)-1-p-tolylprop-2-en-1-One] | 240 | 13.1 | 12.3 |
| Cn1cc(/C=C/C(=O)c2ccc([N+](=O)[O-])cc2)c2ccccc21 [Compound 5f, (E)-3-(1-Methyl-1H-indol-3-yl)-1-(4-nitrophenyl)prop-2-en-1-one] | 278 | 10.9 | 9.31 |
| Cn1cc(/C=C/C(=O)c2cccc([N+](=O)[O-])c2)c2ccccc21 [Compound 5g, (E)-3-(1-Methyl-1H-indol-3-yl)-1-(3-nitrophenyl)prop-2-en-1-one] | 267 | 8.38 | 7.22 |
| Cn1cc(/C=C/C(=O)c2ccccc2)c2ccccc21 [Compound 5e, (E)-3-(1-Methyl-1H-indol-3-yl)-1-phenylprop-2-en-1-one] |  | 12.8 | 9.15 |
| Cn1cc(/C=C/C(=O)c2ccc(Cl)cc2)c2ccccc21 [Compound 5d, (E)-1-(4-Chlorophenyl)-3-(1-methyl-1H-indol-3-yl)prop-2-en-1-one] | 248 | 8.2 | 8.26 |
| COc1ccc(C(=O)/C=C/c2cn(C)c3ccccc23)cc1OC [Compound 5a, (E)-1-(3,4-Dimethoxyphenyl)-3-(1-methyl-1H-indol-3-yl) prop-2-en-1-one] | 271 | 8.34 | 8.88 |
